The numbers were not newly measured in paper PMC8177775 (Cancer Science, 2021), which cites them from elsewhere.

SMILES strings stand for the structures.

Data set [1] has as its system patients with solid tumors. The note with it: cited from earlier work.
For data set [2], the system named is patients with acute myeloid leukemia. The note with it: n = 36; cited from earlier work.
Data set [3] has as its system patients with wild‐type p53 and RAS or RAF mutations and locally advanced or metastatic solid tumors. The note with it: 26 patients; cited from earlier work.

Take `CCOc1cc(C(C)(C)C)ccc1C1=N[C@@](C)(c2ccc(Cl)cc2)[C@@](C)(c2ccc(Cl)cc2)N1C(=O)N1CCN(CCCS(C)(=O)=O)CC1` [RG7112]: in data set [1] (n = 76), the “Grade ≥ 3 lymphocyte count decreased” value is 11 patients and the “Grade ≥ 3 platelet count decreased” value is “two patients”. Besides, the Tolerability result in data set [1] (patients (n = 76) with solid tumors) is “generally well tolerated”.
As to `CC(C)[C@@H](CS(=O)(=O)C(C)C)N1C(=O)[C@@](C)(CC(=O)O)C[C@H](c2cccc(Cl)c2)[C@H]1c1ccc(Cl)cc1` [AMG 232], in data set [2], the “Common treatment-related AEs” value is “nausea, diarrhea, and vomiting”; the MTD entry is “not reached”.
`CC(C)(C)C[C@@H]1N[C@@H](C(=O)N[C@H]2CC[C@H](O)CC2)[C@H](c2cccc(Cl)c2F)[C@]12C(=O)Nc1cc(Cl)ccc12` [SAR405838]: the “Most common reported AEs” value in data set [3] was “diarrhea, blood creatine phosphokinase increased, nausea, and vomiting”.
